Assay [1] deals with T1, Phosphatidylinositol 4,5-bisphosphate 3-kinase catalytic subunit delta isoform (Homo sapiens, UniProt O00329).
T1 sequence (O00329 whole entry): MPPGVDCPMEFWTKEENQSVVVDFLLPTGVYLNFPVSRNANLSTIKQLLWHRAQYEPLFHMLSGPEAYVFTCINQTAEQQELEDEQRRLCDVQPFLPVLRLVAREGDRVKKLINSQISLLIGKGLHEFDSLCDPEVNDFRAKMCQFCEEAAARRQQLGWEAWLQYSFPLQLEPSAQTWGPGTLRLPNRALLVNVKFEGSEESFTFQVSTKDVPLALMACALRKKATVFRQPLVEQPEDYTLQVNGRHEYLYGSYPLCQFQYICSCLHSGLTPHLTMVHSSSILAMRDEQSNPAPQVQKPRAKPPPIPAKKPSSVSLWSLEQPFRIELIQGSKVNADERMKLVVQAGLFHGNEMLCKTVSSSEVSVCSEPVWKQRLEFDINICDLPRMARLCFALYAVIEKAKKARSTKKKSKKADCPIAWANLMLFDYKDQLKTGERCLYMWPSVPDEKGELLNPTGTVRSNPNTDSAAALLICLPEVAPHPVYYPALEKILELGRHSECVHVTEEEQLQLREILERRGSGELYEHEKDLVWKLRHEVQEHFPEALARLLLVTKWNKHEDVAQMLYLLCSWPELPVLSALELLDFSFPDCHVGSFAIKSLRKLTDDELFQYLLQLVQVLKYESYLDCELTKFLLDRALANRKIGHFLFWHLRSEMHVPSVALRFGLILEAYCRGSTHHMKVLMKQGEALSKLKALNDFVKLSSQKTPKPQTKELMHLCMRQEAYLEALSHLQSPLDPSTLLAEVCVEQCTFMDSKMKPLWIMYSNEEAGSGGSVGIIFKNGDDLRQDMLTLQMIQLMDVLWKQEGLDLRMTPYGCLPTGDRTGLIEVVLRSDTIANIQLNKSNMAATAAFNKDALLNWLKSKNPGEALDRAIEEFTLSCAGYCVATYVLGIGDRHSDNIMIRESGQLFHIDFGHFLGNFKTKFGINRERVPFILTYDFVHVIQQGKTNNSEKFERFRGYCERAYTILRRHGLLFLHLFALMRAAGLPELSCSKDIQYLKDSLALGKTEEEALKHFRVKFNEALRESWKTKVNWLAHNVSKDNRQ
Nature of the assay: Inhibition of PI3Kdelta (unknown origin).

Assay [2] deals with Phosphatidylinositol 4,5-bisphosphate 3-kinase catalytic subunit beta isoform (Homo sapiens, UniProt P42338). The assay is described as follows: Inhibition of PI3Kbeta (unknown origin).
For assay [3], the target named is Phosphatidylinositol 4,5-bisphosphate 3-kinase catalytic subunit alpha isoform (Homo sapiens, UniProt P42336). The assay is described as follows: Inhibition of PI3Kalpha (unknown origin).
The species named for assay [4] is Homo sapiens. Nature of the assay: Selectivity ratio of IC50 for PI3Kalpha (unknown origin) to IC50 for PI3Kdelta (unknown origin).
The species named for assay [5] is Homo sapiens. Nature of the assay: Selectivity ratio of IC50 for PI3Kbeta (unknown origin) to IC50 for PI3Kalpha (unknown origin).
Assay [6] is filed under the species Homo sapiens. The assay is described as follows: Selectivity ratio of IC50 for PI3Kdelta (unknown origin) to IC50 for PI3Kalpha (unknown origin).

These results are taken from ChEMBL document CHEMBL3132856, “Novel pyrazolo[1,5-a]pyridines as PI3K inhibitors: variation of the central linker group” (Medchemcomm, 2014).

Chain of Phosphatidylinositol 4,5-bisphosphate 3-kinase catalytic subunit beta isoform (P42338 whole entry, canonical isoform): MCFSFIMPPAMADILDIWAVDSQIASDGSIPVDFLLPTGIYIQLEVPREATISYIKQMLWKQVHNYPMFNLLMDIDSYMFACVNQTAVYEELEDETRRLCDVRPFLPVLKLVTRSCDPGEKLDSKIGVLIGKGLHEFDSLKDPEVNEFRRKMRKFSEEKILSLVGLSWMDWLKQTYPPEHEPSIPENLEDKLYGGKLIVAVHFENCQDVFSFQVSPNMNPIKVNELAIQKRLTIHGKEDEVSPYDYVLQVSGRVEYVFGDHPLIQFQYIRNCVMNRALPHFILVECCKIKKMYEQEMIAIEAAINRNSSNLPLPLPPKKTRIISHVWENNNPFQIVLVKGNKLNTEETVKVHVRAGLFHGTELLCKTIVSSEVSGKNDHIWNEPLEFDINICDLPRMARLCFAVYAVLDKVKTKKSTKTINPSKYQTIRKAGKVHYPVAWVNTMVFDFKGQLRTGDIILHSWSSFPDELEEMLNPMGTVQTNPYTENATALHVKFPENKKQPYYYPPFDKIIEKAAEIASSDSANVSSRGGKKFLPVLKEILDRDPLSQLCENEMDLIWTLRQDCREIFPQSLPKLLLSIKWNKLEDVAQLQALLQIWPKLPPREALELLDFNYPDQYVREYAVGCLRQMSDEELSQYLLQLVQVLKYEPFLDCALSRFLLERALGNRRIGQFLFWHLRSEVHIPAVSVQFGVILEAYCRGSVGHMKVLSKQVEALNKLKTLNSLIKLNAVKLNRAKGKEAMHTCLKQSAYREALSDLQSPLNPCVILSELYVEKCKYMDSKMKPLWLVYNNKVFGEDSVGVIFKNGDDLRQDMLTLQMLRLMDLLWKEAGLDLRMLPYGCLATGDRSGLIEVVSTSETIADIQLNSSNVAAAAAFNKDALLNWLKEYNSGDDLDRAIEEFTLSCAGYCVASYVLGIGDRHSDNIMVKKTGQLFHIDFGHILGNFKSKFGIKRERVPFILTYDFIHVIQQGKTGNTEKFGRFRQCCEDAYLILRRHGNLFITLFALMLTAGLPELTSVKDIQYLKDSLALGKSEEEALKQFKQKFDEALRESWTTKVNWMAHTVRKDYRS
Chain of Phosphatidylinositol 4,5-bisphosphate 3-kinase catalytic subunit alpha isoform (P42336 whole entry, canonical isoform): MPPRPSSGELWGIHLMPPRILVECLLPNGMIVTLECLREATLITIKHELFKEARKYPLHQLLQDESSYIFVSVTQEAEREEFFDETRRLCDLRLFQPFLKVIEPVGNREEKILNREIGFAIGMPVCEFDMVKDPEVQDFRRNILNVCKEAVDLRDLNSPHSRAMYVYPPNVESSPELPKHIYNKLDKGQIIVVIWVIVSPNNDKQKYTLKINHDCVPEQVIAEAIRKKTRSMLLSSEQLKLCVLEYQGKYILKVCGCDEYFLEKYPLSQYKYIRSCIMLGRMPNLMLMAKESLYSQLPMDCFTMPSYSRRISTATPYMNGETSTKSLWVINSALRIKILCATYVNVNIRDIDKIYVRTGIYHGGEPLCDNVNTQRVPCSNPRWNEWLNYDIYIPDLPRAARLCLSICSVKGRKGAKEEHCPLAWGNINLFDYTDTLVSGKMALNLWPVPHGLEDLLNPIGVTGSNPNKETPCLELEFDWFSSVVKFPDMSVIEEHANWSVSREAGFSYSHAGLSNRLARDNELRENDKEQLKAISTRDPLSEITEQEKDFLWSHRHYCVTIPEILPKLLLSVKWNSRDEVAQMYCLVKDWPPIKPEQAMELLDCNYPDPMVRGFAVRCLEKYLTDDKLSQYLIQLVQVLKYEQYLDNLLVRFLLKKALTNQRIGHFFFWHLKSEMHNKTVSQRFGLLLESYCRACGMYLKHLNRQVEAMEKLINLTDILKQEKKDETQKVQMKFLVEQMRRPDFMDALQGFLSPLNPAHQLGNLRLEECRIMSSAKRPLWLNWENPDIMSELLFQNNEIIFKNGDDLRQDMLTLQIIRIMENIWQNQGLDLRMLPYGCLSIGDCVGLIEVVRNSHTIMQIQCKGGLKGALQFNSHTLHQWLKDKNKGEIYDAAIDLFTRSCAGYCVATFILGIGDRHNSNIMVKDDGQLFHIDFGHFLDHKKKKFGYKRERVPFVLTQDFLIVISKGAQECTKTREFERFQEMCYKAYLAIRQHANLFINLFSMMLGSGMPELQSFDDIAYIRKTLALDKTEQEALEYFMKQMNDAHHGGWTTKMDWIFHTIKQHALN

For the compound `CN(C)CCN(C)c1ccc(C#N)cc1S(=O)(=O)c1nc(-c2cnn3ccc(Br)cc23)cs1`, the IC50 in assay [1] was 2000 nM; in assay [2], 3560 nM; in assay [3] it was 370 nM.

`Cc1ccc([N+](=O)[O-])cc1S(=O)(=O)N1CCCN(Cc2cnn3ccc(C#N)cc23)CC1`: the IC50 in assay [1], in assay [2] and in assay [3] was greater than 1000 nM throughout.

As for `Cc1ccc([N+](=O)[O-])cc1S(=O)(=O)N1CCC(c2cnn3ccc(Br)cc23)CC1`, the IC50 in assay [1], in assay [2] and in assay [3] was greater than 1000 nM each time.

Take `Cc1ccc([N+](=O)[O-])cc1S(=O)(=O)Cc1nc(-c2cnn3ccc(Br)cc23)cs1`: the IC50 in assay [1] was 90 nM; in assay [2], 140 nM; in assay [3], 240 nM.

Take `Cc1ccc([N+](=O)[O-])cc1CS(=O)(=O)c1nc(-c2cnn3ccc(Br)cc23)cs1`: the IC50 in assay [1], in assay [2] and in assay [3] was greater than 1000 nM in each case.

Turning to `Cc1ccc([N+](=O)[O-])cc1S(=O)(=O)/N=c1/scc(-c2cnn3ccc(Br)cc23)n1C`, the IC50 in assay [1], in assay [2] and in assay [3] was greater than 1000 nM each time.

As to `Cc1ccc([N+](=O)[O-])cc1-c1nc(-c2cnn3ccc(Br)cc23)cs1`, the IC50 in assay [1], in assay [2] and in assay [3] was greater than 1000 nM in each case.

As for `N#Cc1ccc(F)c([S+]([O-])c2nc(-c3cnn4ccc(Br)cc34)cs2)c1` (centres undefined), the values for the IC50 in assay [1], in assay [2] and in assay [3] were 200 nM, greater than 1000 nM and 300 nM, respectively.

Consider `Cc1ccc([N+](=O)[O-])cc1CSc1nc(-c2cnn3ccc(Br)cc23)cs1`, for which the IC50 in assay [1], in assay [2] and in assay [3] was greater than 1000 nM each time.

For the compound `Cc1ccc([N+](=O)[O-])cc1C(=O)N[C@H]1CCCN(Cc2cnn3ccc(C#N)cc23)C1`, the IC50 in assay [1], in assay [2] and in assay [3] was greater than 1000 nM in each case.

Turning to `Cc1ccc([N+](=O)[O-])cc1S(=O)(=O)N(C)c1nc(-c2cnn3ccc(Br)cc23)cs1`, the IC50 was 1550 nM in assay [1], greater than 1000 nM in assay [2] and greater than 1000 nM in assay [3].

For the compound `Cc1ccc([N+](=O)[O-])cc1S(=O)(=O)N1CCCC(c2cnn3ccc(Br)cc23)C1` (centres undefined), the IC50 in assay [1] was greater than 1000 nM; in assay [2] it was greater than 1000 nM; in assay [3], 590 nM.

Consider `Cc1ccc([N+](=O)[O-])cc1Nc1nc(-c2cnn3ccc(Br)cc23)cs1`, for which the IC50 in assay [1], in assay [2] and in assay [3] was greater than 1000 nM each time.

As to `N#Cc1cc(S(=O)(=O)c2nc(-c3cnn4ccc(Br)cc34)cs2)ccc1NCCN1CCOCC1`, the Ratio IC50 in assay [4] was determined as 9. Further, the IC50 in assay [1] is 240 nM; in assay [2] it was greater than 1000 nM; in assay [3] it was 2130 nM.

As to `Cc1ccc([N+](=O)[O-])cc1S(=O)(=O)N[C@H]1CCN(Cc2cnn3ccc(C#N)cc23)C1`, the IC50 in assay [1], in assay [2] and in assay [3] was greater than 1000 nM throughout.

Regarding `Cc1ccc([N+](=O)[O-])cc1C(=O)N[C@@H]1CCCN(Cc2cnn3ccc(C#N)cc23)C1`, the IC50 in assay [1], in assay [2] and in assay [3] was greater than 1000 nM each time.

Turning to `CN(C)CCN(C)c1ccc(S(=O)(=O)c2nc(-c3cnn4ccc(Br)cc34)cs2)cc1C#N`, the Ratio IC50 in assay [4] was 4. Besides, the IC50 was 640 nM in assay [1], greater than 1000 nM in assay [2] and 2470 nM in assay [3].

Take `Cc1ccc([N+](=O)[O-])cc1S(=O)(=O)N1CCC(c2cnn3ccc(Br)cc23)C1` (centres undefined): the IC50 was greater than 1000 nM in assay [1], greater than 1000 nM in assay [2] and 3000 nM in assay [3].

`Cc1ccc([N+](=O)[O-])cc1S(=O)(=O)N1CCN(Cc2cnn3ccc(C#N)cc23)CC1`: the IC50 in assay [1], in assay [2] and in assay [3] was greater than 1000 nM throughout.

Regarding `O=[N+]([O-])c1cccc([S+]([O-])c2nc(-c3cnn4ccc(Br)cc34)cs2)c1` (centres undefined), the Ratio IC50 in assay [5] was less than 10. Besides, the IC50 turned out to be 320 nM in assay [1], 4420 nM in assay [2] and 740 nM in assay [3].

With `Cc1ccc([N+](=O)[O-])cc1C(=O)N[C@@H]1CCN(Cc2cnn3ccc(C#N)cc23)C1`, the IC50 in assay [1], in assay [2] and in assay [3] was greater than 1000 nM throughout.

Consider `Cc1ccccc1[S+]([O-])c1nc(-c2cnn3ccc(Br)cc23)cs1` (centres undefined), for which the IC50 in assay [1] was greater than 1000 nM; in assay [2] it was greater than 1000 nM; in assay [3], 1280 nM.

Turning to `Cc1ccc([N+](=O)[O-])cc1S(=O)(=O)N[C@H]1CCCN(Cc2cnn3ccc(C#N)cc23)C1`, the IC50 in assay [1], in assay [2] and in assay [3] was greater than 1000 nM each time.

`Cc1ccc([N+](=O)[O-])cc1C(=O)NC1CCN(Cc2cnn3ccc(C#N)cc23)CC1`: the IC50 in assay [1], in assay [2] and in assay [3] was greater than 1000 nM throughout.

For the compound `Cc1ccc([N+](=O)[O-])cc1C(=O)NC1CN(Cc2cnn3ccc(C#N)cc23)C1`, the IC50 in assay [1], in assay [2] and in assay [3] was greater than 1000 nM each time.

Regarding `Cc1ccc([N+](=O)[O-])cc1S(=O)(=O)Nc1nc(-c2cnn3ccc(Br)cc23)cs1`, the values for the IC50 in assay [1], in assay [2] and in assay [3] were greater than 1000 nM, greater than 1000 nM and 1260 nM, respectively.

On to `N#Cc1cc(S(=O)(=O)c2nc(-c3cnn4ccc(Br)cc34)cs2)ccc1F`, for which the IC50 in assay [1] is 150 nM; in assay [2], greater than 1000 nM; in assay [3] it was 170 nM.

On to `N#Cc1ccc(F)c(S(=O)(=O)c2nc(-c3cnn4ccc(Br)cc34)cs2)c1`, for which the IC50 in assay [1] is 440 nM; in assay [2], greater than 1000 nM; in assay [3], 720 nM.

With `O=[N+]([O-])c1cccc(S(=O)(=O)c2nc(-c3cnn4ccc(Br)cc34)cs2)c1`, the Ratio IC50 in assay [5] is less than 10. In assay [3], this compound had a 50% inhibitory concentration (IC50) of 630 nM.

In the case of `Cc1ccc([N+](=O)[O-])cc1C(=O)N1CCC(c2cnn3ccc(Br)cc23)CC1`, the IC50 in assay [1], in assay [2] and in assay [3] was greater than 1000 nM in each case.

Regarding `Cc1ccc([N+](=O)[O-])cc1S(=O)(=O)C/C=C/c1cnn2ccc(Br)cc12`, the IC50 in assay [1] is 3350 nM; in assay [2], greater than 1000 nM; in assay [3], 140 nM.

For the compound `Cc1ccc([N+](=O)[O-])cc1S(=O)(=O)N[C@@H]1CCN(Cc2cnn3ccc(C#N)cc23)C1`, the IC50 in assay [1], in assay [2] and in assay [3] was greater than 1000 nM throughout.

Regarding `Cc1ccc([N+](=O)[O-])cc1S(=O)(=O)NC1CCN(Cc2cnn3ccc(C#N)cc23)CC1`, the IC50 in assay [1], in assay [2] and in assay [3] was greater than 1000 nM each time.

With `Cc1ccc([N+](=O)[O-])cc1S(=O)(=O)N[C@@H]1CCCN(Cc2cnn3ccc(C#N)cc23)C1`, the IC50 in assay [1], in assay [2] and in assay [3] was greater than 1000 nM each time.

Consider `Cc1ccc([N+](=O)[O-])cc1Cc1nc(-c2cnn3ccc(Br)cc23)cs1`, for which the IC50 in assay [1], in assay [2] and in assay [3] was greater than 1000 nM throughout.

Turning to `Cc1ccc([N+](=O)[O-])cc1C(=O)N1CCN(Cc2cnn3ccc(C#N)cc23)CC1`, the IC50 in assay [1], in assay [2] and in assay [3] was greater than 1000 nM throughout.

For the compound `Cc1ccc([N+](=O)[O-])cc1S(=O)(=O)NC1CN(Cc2cnn3ccc(C#N)cc23)C1`, the IC50 in assay [1], in assay [2] and in assay [3] was greater than 1000 nM throughout.

Turning to `Cc1ccc([N+](=O)[O-])cc1C(=O)N[C@H]1CCN(Cc2cnn3ccc(C#N)cc23)C1`, the IC50 in assay [1], in assay [2] and in assay [3] was greater than 1000 nM each time.

For `O=[N+]([O-])c1cccc(Sc2nc(-c3cnn4ccc(Br)cc34)cs2)c1`, the IC50 in assay [1], in assay [2] and in assay [3] was greater than 1000 nM throughout.

For `CN(C)CCN(C)c1ccc(C#N)cc1[S+]([O-])c1nc(-c2cnn3ccc(Br)cc23)cs1` (centres undefined), the Ratio IC50 in assay [6] is 5; in assay [4], 16. Further, the IC50 turned out to be 250 nM in assay [1], 4340 nM in assay [2] and 4030 nM in assay [3].
